# Data: article PMC6199309, “A therapeutic approach to pantothenate kinase associated neurodegeneration” (Nature Communications, 2018)
# Tests used:
# [1] = target: T1, MYLK2 (Homo sapiens, UniProt Q9H1R3); assay: KINOMEscan; format: binding; conditions: read-out: %Ctrl @ 10000nM
# T1 construct: purchased DiscoverX KINOMEscan
# [2] = target: T2, CAMK2A (Homo sapiens, UniProt Q9UQM7); assay: KINOMEscan; format: binding; conditions: read-out: %Ctrl @ 10000nM
# T2 construct: purchased DiscoverX KINOMEscan
# [3] = target: T3, MST2 (Homo sapiens, UniProt Q13188); assay: KINOMEscan; format: binding; conditions: read-out: %Ctrl @ 10000nM
# T3 construct: purchased DiscoverX KINOMEscan
# T3 sequence (Q13188 whole entry): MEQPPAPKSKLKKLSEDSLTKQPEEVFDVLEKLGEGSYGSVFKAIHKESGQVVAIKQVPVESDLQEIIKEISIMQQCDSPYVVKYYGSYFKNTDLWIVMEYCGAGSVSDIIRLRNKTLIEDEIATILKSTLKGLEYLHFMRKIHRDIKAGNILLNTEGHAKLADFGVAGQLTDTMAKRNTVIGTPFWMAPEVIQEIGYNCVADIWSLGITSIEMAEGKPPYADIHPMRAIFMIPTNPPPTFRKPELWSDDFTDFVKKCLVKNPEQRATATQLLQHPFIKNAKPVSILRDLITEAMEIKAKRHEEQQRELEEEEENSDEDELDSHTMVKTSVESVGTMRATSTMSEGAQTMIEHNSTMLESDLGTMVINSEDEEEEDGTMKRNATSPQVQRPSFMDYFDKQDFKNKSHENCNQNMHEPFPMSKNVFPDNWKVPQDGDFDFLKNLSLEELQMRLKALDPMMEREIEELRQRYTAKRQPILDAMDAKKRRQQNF
# [4] = target: T4, CAMK1 (Homo sapiens, UniProt Q14012); assay: KINOMEscan; format: binding; conditions: read-out: %Ctrl @ 10000nM
# T4 construct: purchased DiscoverX KINOMEscan
# [5] = system: 72 cellular proteins known to cause off-target effects; assay: SAFETYscan off-target panel; conditions: 1 and 10 μM
# [6] = target: T5, AURKA (Homo sapiens, UniProt O14965); assay: KINOMEscan; format: binding; conditions: read-out: %Ctrl @ 10000nM
# T5 construct: purchased DiscoverX KINOMEscan
# [7] = target: T6, MEK2 (Homo sapiens, UniProt P36507); assay: KINOMEscan; format: binding; conditions: read-out: %Ctrl @ 10000nM
# T6 construct: purchased DiscoverX KINOMEscan
# [8] = target: T7, RET(M918T) (Homo sapiens, UniProt P07949, M918T); assay: KINOMEscan; format: binding; conditions: read-out: %Ctrl @ 10000nM
# T7 construct: purchased DiscoverX KINOMEscan
# [9] = target: T8, GRK2 (Homo sapiens, UniProt P25098); assay: KINOMEscan; format: binding; conditions: read-out: %Ctrl @ 10000nM
# T8 construct: purchased DiscoverX KINOMEscan
# [10] = target: T9, NEK7 (Homo sapiens, UniProt Q8TDX7); assay: KINOMEscan; format: binding; conditions: read-out: %Ctrl @ 10000nM
# T9 construct: purchased DiscoverX KINOMEscan
# [11] = target: T10, TNNI3K (Homo sapiens, UniProt Q59H18); assay: KINOMEscan; format: binding; conditions: read-out: %Ctrl @ 10000nM
# T10 construct: purchased DiscoverX KINOMEscan
# T10 sequence (Q59H18 whole entry): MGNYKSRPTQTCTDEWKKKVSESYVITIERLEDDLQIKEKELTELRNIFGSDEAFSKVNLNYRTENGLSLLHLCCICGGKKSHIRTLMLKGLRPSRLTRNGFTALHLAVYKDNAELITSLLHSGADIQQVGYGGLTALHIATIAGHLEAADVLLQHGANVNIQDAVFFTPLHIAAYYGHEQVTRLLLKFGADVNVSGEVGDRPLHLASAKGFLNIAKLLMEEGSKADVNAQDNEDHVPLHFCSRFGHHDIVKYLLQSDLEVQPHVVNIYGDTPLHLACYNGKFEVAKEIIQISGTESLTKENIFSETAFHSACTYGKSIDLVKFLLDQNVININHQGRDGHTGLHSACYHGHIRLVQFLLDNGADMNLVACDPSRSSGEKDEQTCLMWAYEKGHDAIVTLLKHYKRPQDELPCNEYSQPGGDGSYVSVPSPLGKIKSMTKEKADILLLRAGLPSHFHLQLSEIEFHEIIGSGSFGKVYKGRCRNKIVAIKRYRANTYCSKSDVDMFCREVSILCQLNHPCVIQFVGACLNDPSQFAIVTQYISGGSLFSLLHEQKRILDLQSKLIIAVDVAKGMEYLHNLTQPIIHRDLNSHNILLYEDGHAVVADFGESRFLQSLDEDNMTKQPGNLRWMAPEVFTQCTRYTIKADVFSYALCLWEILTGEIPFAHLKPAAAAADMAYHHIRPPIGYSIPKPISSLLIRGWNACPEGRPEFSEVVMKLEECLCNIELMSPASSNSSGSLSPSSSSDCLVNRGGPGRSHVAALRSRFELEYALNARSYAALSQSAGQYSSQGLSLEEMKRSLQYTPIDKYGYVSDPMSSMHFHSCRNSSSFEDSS
# [12] = target: T11, NEK9 (Homo sapiens, UniProt Q8TD19); assay: KINOMEscan; format: binding; conditions: read-out: %Ctrl @ 10000nM
# T11 construct: purchased DiscoverX KINOMEscan
# [13] = target: T12, TYK2(JH1domain-catalytic) (Homo sapiens, UniProt P29597); assay: KINOMEscan; format: binding; conditions: read-out: %Ctrl @ 10000nM
# T12 construct: TYK2(JH1domain-catalytic); DNA label for qPCR (T7 phage fusion or DNA tag); purchased DiscoverX scanMAX; host or cells: E. coli BL21-derived (T7 phage) or HEK-293
# T12 sequence (P29597 897-1176 limits assumed): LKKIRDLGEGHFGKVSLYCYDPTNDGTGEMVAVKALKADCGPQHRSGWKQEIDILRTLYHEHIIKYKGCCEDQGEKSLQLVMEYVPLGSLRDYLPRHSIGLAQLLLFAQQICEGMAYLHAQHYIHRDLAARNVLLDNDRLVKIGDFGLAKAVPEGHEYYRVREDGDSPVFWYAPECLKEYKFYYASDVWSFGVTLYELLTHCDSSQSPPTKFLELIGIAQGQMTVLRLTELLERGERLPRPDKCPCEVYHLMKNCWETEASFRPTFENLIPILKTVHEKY
# [14] = target: T13, DCAMKL3 (Homo sapiens, UniProt Q9C098); assay: KINOMEscan; format: binding; conditions: read-out: %Ctrl @ 10000nM
# T13 construct: purchased DiscoverX KINOMEscan
# [15] = PZ-2891 levels in plasma, liver and brain tissue; format: in vivo, mouse; conditions: 225 ppm PZ-2891 in diet, 4 weeks
# Method: Plasma (20 μl) was added to 100 μl acetonitrile containing 0.6 μM warfarin to a final concentration of 0.5 μM. The samples were incubated on ice for 30 min. Samples were spun at 3500×g for 10 min to pellet debris, and the supernatant was transferred to a glass vial. […] Tissue was homogenized in 2 ml of 80% methanol containing 0.1 μM warfarin, and incubated at −80 °C for 4 h. Samples were spun at 3500×g for 10 min to pellet debris, supernatant was transferred to a glass tube and dried down using a Savant SPD1010 Speed-Vac (Thermo Scientific) overnight. Samples were resuspended in 400 μl of 80% acetonitrile to a final concentration of 0.5 μM and transferred to a glass vial.
# Samples (5 μl) were injected onto an XSelect® HSS C18, 2.5 μm, 3.0 × 150 mm column (Waters) using a flow rate of 0.25 ml/min. Solvent A was 0.1% formic acid in water, and Solvent B was acetonitrile + 0.1% formic acid. The HPLC program was the following: starting solvent mixture of 50% B, 0–0.5 min isocratic with 50% B; 0.5–1.5 min linear gradient to 95% B; 1.5–20 min isocratic with 95% B; 20–21 min linear gradient to 50% B; 21–25 min isocratic with 50% B. The QTrap 4500 was operated in the positive mode, and the ion source parameters were: ion spray voltage, 5500 V; curtain gas, 30 psi; temperature, 450 °C; collision gas, medium; ion source gas 1, 30 psi; and ion source gas 2, 40 psi. […]
# Supplementary Fig. 11. […]. […]
# [16] = target: T14, NEK5 (Homo sapiens, UniProt Q6P3R8); assay: KINOMEscan; format: binding; conditions: read-out: %Ctrl @ 10000nM
# T14 construct: purchased DiscoverX KINOMEscan
# [17] = target: T15, CSNK1E (Homo sapiens, UniProt P49674); assay: KINOMEscan; format: binding; conditions: read-out: %Ctrl @ 10000nM
# T15 construct: purchased DiscoverX KINOMEscan
# [18] = target: T16, PLK3 (Homo sapiens, UniProt Q9H4B4); assay: KINOMEscan; format: binding; conditions: read-out: %Ctrl @ 10000nM
# T16 construct: purchased DiscoverX KINOMEscan
# [19] = target: T17, SIK2 (Homo sapiens, UniProt Q9H0K1); assay: KINOMEscan KdELECT; format: binding
# T17 construct: DNA tag for qPCR (T7 phage fusion or DNA label); purchased DiscoverX KdELECT; host or cells: E. coli BL21-derived (T7 phage) or HEK-293
# T17 sequence (Q9H0K1 whole entry, the tested form may be a part): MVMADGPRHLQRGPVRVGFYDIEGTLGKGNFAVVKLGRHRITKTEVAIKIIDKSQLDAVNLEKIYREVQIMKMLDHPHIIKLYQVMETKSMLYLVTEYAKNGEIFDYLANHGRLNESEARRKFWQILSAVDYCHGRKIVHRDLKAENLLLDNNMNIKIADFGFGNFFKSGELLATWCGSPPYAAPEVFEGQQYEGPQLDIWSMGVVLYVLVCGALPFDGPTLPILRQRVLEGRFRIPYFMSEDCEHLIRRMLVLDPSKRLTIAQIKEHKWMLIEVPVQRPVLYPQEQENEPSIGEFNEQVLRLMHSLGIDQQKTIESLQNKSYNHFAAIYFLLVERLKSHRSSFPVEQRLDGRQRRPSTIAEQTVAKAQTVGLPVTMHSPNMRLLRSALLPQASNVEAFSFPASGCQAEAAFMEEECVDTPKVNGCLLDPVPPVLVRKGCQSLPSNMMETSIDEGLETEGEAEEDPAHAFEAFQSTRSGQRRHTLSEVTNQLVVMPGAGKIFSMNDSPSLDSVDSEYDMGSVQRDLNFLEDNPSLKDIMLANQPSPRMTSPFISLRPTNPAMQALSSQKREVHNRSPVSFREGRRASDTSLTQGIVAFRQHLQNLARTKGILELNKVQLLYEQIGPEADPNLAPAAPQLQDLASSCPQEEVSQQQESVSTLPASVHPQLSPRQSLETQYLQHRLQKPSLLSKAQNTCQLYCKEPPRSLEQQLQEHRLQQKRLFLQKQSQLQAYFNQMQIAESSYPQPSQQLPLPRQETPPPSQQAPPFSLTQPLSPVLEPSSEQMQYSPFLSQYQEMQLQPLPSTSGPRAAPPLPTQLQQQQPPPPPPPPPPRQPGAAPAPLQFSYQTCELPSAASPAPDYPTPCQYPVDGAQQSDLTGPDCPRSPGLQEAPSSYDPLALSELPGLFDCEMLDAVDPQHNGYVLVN
# [20] = target: T18, CAMK2D (Homo sapiens, UniProt Q13557); assay: KINOMEscan; format: binding; conditions: read-out: %Ctrl @ 10000nM
# T18 construct: purchased DiscoverX KINOMEscan
# T18 sequence (Q13557 whole entry): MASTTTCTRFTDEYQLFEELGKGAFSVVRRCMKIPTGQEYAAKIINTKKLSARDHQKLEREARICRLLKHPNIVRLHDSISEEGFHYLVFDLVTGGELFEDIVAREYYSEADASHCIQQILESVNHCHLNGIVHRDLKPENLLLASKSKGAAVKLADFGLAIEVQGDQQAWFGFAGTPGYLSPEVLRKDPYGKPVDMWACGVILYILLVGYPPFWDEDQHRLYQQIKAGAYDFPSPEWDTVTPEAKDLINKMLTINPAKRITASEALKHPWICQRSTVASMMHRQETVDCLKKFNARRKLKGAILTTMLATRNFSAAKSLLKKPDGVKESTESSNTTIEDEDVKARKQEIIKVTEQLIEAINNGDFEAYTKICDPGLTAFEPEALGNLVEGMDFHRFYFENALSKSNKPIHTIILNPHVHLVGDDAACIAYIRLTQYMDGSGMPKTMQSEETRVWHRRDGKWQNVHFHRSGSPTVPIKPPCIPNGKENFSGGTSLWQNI
# [21] = target: T19, CSNK1G3 (Homo sapiens, UniProt Q9Y6M4); assay: KINOMEscan; format: binding; conditions: read-out: %Ctrl @ 10000nM
# T19 construct: purchased DiscoverX KINOMEscan
# T19 sequence (Q9Y6M4 whole entry): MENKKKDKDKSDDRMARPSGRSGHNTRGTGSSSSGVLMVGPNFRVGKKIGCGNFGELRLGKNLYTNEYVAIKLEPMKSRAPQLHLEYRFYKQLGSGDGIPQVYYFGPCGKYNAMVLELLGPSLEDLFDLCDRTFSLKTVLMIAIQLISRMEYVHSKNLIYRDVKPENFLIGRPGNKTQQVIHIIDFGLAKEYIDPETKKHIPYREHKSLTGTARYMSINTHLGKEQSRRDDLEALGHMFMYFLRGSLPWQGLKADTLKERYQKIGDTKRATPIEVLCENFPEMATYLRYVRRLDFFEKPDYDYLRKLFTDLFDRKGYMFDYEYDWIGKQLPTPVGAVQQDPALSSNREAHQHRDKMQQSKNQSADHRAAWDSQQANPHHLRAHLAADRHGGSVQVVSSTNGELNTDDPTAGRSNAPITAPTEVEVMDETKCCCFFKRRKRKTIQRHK
# [22] = target: T20, PIK3CA (Homo sapiens, UniProt P42336); assay: KINOMEscan; format: binding; conditions: read-out: %Ctrl @ 10000nM
# T20 construct: purchased DiscoverX KINOMEscan
# [23] = target: T21, EPHB3 (Homo sapiens, UniProt P54753); assay: KINOMEscan; format: binding; conditions: read-out: %Ctrl @ 10000nM
# T21 construct: purchased DiscoverX KINOMEscan
# T21 sequence (P54753 34-998): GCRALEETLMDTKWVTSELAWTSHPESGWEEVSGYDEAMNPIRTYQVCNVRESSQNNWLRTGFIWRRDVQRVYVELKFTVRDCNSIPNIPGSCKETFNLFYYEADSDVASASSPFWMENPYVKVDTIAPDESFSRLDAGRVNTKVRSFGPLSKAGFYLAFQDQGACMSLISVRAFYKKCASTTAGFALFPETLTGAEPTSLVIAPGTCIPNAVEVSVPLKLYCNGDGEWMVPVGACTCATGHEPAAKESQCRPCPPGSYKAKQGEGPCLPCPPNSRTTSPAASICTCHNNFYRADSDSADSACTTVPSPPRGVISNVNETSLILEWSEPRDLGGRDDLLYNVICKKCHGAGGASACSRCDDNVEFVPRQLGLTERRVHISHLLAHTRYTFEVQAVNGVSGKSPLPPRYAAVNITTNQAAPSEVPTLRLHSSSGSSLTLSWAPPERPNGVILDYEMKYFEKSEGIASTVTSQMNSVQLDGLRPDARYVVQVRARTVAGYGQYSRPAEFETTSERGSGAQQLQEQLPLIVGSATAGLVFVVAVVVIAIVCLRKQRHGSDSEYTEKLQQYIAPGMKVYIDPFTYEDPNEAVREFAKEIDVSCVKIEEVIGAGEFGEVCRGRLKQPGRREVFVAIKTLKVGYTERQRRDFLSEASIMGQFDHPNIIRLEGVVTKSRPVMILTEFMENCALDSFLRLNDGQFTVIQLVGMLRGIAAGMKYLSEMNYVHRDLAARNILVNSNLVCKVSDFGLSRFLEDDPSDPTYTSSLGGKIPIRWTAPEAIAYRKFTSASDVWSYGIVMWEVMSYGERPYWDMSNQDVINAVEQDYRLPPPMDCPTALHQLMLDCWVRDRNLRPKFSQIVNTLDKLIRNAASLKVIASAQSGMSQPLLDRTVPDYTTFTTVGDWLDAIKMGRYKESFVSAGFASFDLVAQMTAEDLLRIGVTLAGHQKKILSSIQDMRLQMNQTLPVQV
# [24] = target: T22, FAK (Homo sapiens, UniProt Q05397); assay: KINOMEscan; format: binding; conditions: read-out: %Ctrl @ 10000nM
# T22 construct: purchased DiscoverX KINOMEscan
# [25] = target: T23, PIM2 (Homo sapiens, UniProt Q9P1W9); assay: KINOMEscan; format: binding; conditions: read-out: %Ctrl @ 10000nM
# T23 construct: purchased DiscoverX KINOMEscan
# [26] = target: T24, PIP5K1A (Homo sapiens, UniProt Q99755); assay: KINOMEscan; format: binding; conditions: read-out: %Ctrl @ 10000nM
# T24 construct: purchased DiscoverX KINOMEscan
# [27] = target: T25, YANK3 (Homo sapiens, UniProt Q86UX6); assay: KINOMEscan; format: binding; conditions: read-out: %Ctrl @ 10000nM
# T25 construct: purchased DiscoverX scanMAX; host or cells: E. coli BL21-derived host (T7 phage) or HEK-293
# [28] = target: T26, PCTK1 (Homo sapiens, UniProt Q00536); assay: KINOMEscan; format: binding; conditions: read-out: %Ctrl @ 10000nM
# T26 construct: purchased DiscoverX KINOMEscan
# T26 sequence (Q00536 whole entry): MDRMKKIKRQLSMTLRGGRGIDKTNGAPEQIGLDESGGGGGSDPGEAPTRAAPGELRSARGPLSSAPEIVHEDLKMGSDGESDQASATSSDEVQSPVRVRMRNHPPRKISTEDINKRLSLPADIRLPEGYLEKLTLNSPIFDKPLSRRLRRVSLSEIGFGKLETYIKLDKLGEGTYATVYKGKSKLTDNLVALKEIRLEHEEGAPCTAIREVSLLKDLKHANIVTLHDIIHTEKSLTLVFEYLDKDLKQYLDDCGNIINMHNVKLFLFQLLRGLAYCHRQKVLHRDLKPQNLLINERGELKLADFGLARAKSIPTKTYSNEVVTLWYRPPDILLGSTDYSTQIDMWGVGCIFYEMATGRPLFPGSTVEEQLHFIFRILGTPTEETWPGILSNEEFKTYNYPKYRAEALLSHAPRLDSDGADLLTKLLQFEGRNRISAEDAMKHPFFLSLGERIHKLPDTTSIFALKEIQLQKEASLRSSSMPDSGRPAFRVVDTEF
# [29] = target: T27, RIOK2 (Homo sapiens, UniProt Q9BVS4); assay: KINOMEscan; format: binding; conditions: read-out: %Ctrl @ 10000nM
# T27 construct: purchased DiscoverX KINOMEscan
# [30] = target: T28, MINK (Homo sapiens, UniProt Q8N4C8); assay: KINOMEscan; format: binding; conditions: read-out: %Ctrl @ 10000nM
# T28 construct: purchased DiscoverX KINOMEscan
compound,measurement,setting,value
"CC(C)c1ccc(CC(=O)N2CCN(c3ccc(C#N)nn3)CC2)cc1 [PZ-2891, 6-(4-(2-(4-isopropylphenyl)acetyl)piperazin-1-yl)pyridazine-3-carbonitrile]",remaining binding at 10 µM,[1],98%
same,remaining binding at 10 µM,[2],98%
same,remaining binding at 10 µM,[3],92%
same,remaining binding at 10 µM,[4],93%
same,off-target pharmacological interactions,[5],absence of off-target pharmacological interactions
same,remaining binding at 10 µM,[6],75%
same,remaining binding at 10 µM,[7],80%
same,remaining binding at 10 µM,[8],95%
same,remaining binding at 10 µM,[9],56%
same,remaining binding at 10 µM,[10],75%
same,remaining binding at 10 µM,[11],76%
same,remaining binding at 10 µM,[12],96%
same,remaining binding at 10 µM,[13],67%
same,remaining binding at 10 µM,[14],84%
same,PZ-2891 levels in tissues,[15],presence of drug in liver and brain
same,remaining binding at 10 µM,[16],100%
same,remaining binding at 10 µM,[17],97%
same,remaining binding at 10 µM,[18],78%
same,Kd,[19]; SIK2,> 30 µM
same,Kd,[19]; SIK2 Replicate ID = 1,> 30 µM
same,Kd,[19]; SIK2 Replicate ID = 2,> 30 µM
same,remaining binding at 10 µM,[20],91%
same,remaining binding at 10 µM,[21],80%
same,remaining binding at 10 µM,[22],95%
same,remaining binding at 10 µM,[23],92%
same,remaining binding at 10 µM,[24],89%
same,remaining binding at 10 µM,[25],96%
same,remaining binding at 10 µM,[26],86%
same,remaining binding at 10 µM,[27],84%
same,remaining binding at 10 µM,[28],76%
same,remaining binding at 10 µM,[29],86%
same,remaining binding at 10 µM,[30],74%
